Laboratory results: ChEMBL document CHEMBL1201862, “PubChem BioAssay data set” (2004)
The source made the active and inactive calls.

Columns and labels:
[1] = biological target: Troponin, cardiac muscle (Homo sapiens, UniProt P19429+P45379+P63316); assay: Fluorescence-based biochemical high throughput dose response assay for activators of the calcium sensitivity of cardiac Regulated Thin Filaments (RTF). [Related pubchem assays (depositor defined):AID493008, AID493018, AID504382, AID504383]; assay type: protein-complex assay
[2] = biological target: T1, Corticotropin-releasing factor receptor 2/Corticotropin-releasing factor-binding protein (Homo sapiens, UniProt P24387+Q13324); assay: activators of CRF receptor 2 with binding protein – uHTS hits, confirmation (AID 602473); assay type: functional; settings: read-out: EC50_Mean
T1 sequence (Q13324 whole entry): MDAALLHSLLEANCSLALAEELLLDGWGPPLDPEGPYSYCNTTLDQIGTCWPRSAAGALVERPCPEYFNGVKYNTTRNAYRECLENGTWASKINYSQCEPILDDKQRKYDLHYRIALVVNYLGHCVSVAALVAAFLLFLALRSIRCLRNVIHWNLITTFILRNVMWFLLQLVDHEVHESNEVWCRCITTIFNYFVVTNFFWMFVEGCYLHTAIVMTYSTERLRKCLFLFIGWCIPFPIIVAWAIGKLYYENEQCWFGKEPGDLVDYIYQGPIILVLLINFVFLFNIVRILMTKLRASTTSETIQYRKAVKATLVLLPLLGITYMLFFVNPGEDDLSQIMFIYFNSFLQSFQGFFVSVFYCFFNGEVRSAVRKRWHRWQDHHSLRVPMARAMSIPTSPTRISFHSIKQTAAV
T1 sequence (P24387 whole entry): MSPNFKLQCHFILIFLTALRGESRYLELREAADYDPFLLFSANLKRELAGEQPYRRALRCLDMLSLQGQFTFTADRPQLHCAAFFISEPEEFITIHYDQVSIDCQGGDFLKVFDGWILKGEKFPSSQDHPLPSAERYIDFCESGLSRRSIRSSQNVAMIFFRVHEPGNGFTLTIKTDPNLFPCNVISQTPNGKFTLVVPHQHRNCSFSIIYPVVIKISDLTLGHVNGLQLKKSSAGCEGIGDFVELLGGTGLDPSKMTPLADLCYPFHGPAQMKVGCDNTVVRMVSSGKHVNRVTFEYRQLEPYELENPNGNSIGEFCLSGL

[3] = cells; assay type: functional, cell-based; settings: HEK-CNG
[4] = biological target: T2, Galanin receptor type 3 (Homo sapiens, UniProt O60755); assay: Fluorescence-based cell-based primary high throughput dose response assay to identify antagonists of the Galanin Receptor 3 (GalR3).; assay type: functional
T2 sequence (O60755 whole entry): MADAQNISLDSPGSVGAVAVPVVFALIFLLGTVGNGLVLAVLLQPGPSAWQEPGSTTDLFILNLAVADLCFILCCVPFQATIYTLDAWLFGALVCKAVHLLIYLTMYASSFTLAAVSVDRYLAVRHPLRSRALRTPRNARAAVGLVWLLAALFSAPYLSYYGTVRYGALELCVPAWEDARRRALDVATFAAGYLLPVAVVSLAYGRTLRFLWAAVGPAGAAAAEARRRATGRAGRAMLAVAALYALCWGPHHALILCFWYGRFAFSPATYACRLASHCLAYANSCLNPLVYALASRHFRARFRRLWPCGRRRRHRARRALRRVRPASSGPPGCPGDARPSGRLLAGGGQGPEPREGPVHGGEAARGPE

[5] = biological target: T3, Microphthalmia-associated transcription factor (Homo sapiens, UniProt O75030); assay: reducers of TRPM1 reporter luminescence, concentration series – cell-based, SK-MEL-5, cherry-picked, set 3, MITF inhibitor project, dose response (AID 493073); assay type: functional;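 note: SK-MEL-5 melanoma cells with luciferase driven by the MITF target TRPM1 promoter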
T3 sequence (O75030 whole entry): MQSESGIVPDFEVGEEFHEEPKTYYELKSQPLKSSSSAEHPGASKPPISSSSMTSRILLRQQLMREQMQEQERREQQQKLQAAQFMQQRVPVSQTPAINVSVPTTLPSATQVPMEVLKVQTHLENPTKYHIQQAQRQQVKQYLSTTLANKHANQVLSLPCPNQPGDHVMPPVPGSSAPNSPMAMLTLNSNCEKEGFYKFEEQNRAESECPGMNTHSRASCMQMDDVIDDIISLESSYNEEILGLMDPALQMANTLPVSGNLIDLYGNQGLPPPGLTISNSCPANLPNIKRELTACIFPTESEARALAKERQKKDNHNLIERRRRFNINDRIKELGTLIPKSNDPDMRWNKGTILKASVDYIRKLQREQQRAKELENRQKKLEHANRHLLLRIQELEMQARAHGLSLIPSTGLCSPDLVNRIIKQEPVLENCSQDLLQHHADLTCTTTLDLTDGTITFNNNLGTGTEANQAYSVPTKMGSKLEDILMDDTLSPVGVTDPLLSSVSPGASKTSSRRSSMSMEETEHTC

[6] = Trypanosoma cruzi growth suppression in host cells – NIH3T3 host cells, beta-gal luminescence, confirmation (AID 2044); assay type: functional, cell-based;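 note: intracellular parasites grown in NIH/3T3 mouse fibroblasts as host cells; luminescent beta-galactosidase reporter signal from transgenic T. cruzi replicating inside host cells; inhibitors lower the luminescence signal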
[7] = biological target: T4, DNA repair protein RAD52 homolog (Homo sapiens, UniProt P43351); assay type: functional, biochemical
T4 sequence (P43351 whole entry): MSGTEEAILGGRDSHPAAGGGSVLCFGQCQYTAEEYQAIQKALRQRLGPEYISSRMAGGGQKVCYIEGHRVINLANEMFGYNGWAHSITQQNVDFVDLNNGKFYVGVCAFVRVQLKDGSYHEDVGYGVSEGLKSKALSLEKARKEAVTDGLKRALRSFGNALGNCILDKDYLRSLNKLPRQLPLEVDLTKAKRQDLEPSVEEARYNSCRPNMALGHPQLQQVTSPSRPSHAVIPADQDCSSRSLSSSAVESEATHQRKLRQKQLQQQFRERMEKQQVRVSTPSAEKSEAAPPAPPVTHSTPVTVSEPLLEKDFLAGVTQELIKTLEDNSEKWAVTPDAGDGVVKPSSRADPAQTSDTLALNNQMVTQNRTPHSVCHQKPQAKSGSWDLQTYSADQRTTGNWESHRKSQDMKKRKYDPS

[8] = NIH3T3 cell viability loss – ATP luminescence, mouse fibroblasts, counter-screen, dose response (AID 2010); assay type: functional, cell-based;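 note: cells exposed to compound for about 90 hours before reading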
[9] = A cytotoxicity screen of small molecule inhibitors of the PhoP region in Salmonella typhi identified in the primary screen. [Related pubchem assays: 1850, 1864, 1985 ]; assay type: functional

Row | SMILES | EC50 [1] | EC50 [2] | EC50 [3] | IC50 [4] | AC50 [5] | EC50 [6] | AC50 [7] | EC50 [8] | EC50 [9]
1 | Cc1cc(NC(=O)COC(=O)C(Cc2ccccc2)NC(=O)c2ccco2)no1 (stereo not given) | > 71.5 µM (inactive) | 4.49 µM (active) | > 29.9 µM (inactive) | > 29.9 µM (inactive) | – | – | – | – | –
2 | Cc1cc(C)c2nc3nc(C)cc(C)c3c(N)c2c1 | – | – | – | – | 5.72 µM (active) | 1.5 µM (active) | 1.12 µM (active) | > 60 µM (not active) | –
3 | O=C(Cn1cc(/C=C\[N+](=O)[O-])c2ccccc21)Nc1ccccc1 | – | – | – | – | 7.45 µM (active) | – | – | – | > 50 µM (active)
